The values below come from patent US20090176759A1, “LEUKEMIC STEM CELL ABLATION” (ChemGenex Pharmaceuticals, Inc., priority 2007, published 2009).

One experiment relates to MCL-1. As to the kind of experiment: Western Blot analysis of MCL-1 expression in K562 cells. It counts as cell-based. To be noted: K562 (myeloid) cells. As to the method:
In FIG. 1A the number of viable cells at the indicated drug concentrations was determined by trypan blue. In FIG. 1B the expression of ABL and MCL-1 in K562 (myeloid) cells is inhibited by HHT. In FIG. 1C the expression of ABL in lymphoid cells with BCR-ABL or the BCR-ABL T315I mutation is inhibited by HHT.
(§1) Antibodies for Western Blot analysis against c-ABL, Mcl-1 and β-actin were purchased from Santa Cruz Biothechology (Santa Cruz, Calif.). Protein lysates were prepared by lysing cells in RIPA buffer and immunoprecipitation. The retroviral vector MSCV-IRES-eGFP carrying the BCR-ABL cDNA was used to make virus stock for bone marrow transduction/transplantation. Four- to 10-week-old wild-type BABL/c or C57BL/6 (The Jackson Laboratory) and homozygous SRC triple gene knockout (Lyn−/−Hck−/−Fgr−/−) mice were used for leukemogenesis experiments. HHT (ChemGenex Pharmaceuticals, Inc, CA) was dissolved in accompanying diluent to a stock concentration of 1 mg/ml. Further dilutions were made to working concentrations using media or water.
(In general: A western blot detects proteins with antibodies after separation by electrophoresis.)

The subject of the next experiment is BCR-ABL-induced B-ALL. As to the kind of experiment: Mice with BCR-ABL-induced B-ALL treated with HHT. It counts as in vivo. As to the method:
FIG. 4A is a FACS analysis evaluation of the leukemic process in HHT or placebo treated B-ALL mice after 4 days or 10 days.
as §1

Take `COC(=O)C[C@](O)(CCCC(C)(C)O)C(=O)O[C@@H]1C(OC)=C[C@]23CCCN2CCc2cc4c(cc2[C@H]13)OCO4` [HHT, Homoharringtonine]: the “expression of MCL-1” value in the experiment on MCL-1 is on record as “inhibited”. The “leukemic cells (FACS)” value in the experiment with BCR-ABL-induced B-ALL (B-ALL mice after 4 days or 10 days, HHT vs placebo) is “significant reduction in leukemic cells as a function of treatment time and HHT dosage”. In addition, the survival entry in the experiment with BCR-ABL-induced B-ALL (B-ALL mice, HHT 1 mg/kg) is on record as “prolonged survival”.
